In paper PMC5826973 (Frontiers in Pharmacology, 2018):

Assays:
[1] = test system: SK-HEP1 HCC cells; test: MTT-based cell proliferation assay, SK-HEP1; set-up: species or system human
Protocol: (§1) Human HCC cells SK-HEP1 and QGY; breast cancer cells HCC1954, BT474, and MDA-MB468; ovarian cancer cells SKOV3; and prostate cancer cells PC3 and LNCaP were purchased from the Cell Bank of Chinese Academy of Sciences (Shanghai, China), and cultured in T75 flasks with complete DMEM or RPMI 1640 medium (GIBCO, Invitrogen, Gaithersburg, CA, United States) supplemented with 10% FBS (Hyclone, New Zealand), and 1% penicillin/streptomycin (Solarbio, Beijing, China) at 37°C in a humidified atmosphere containing 5% CO2.
(§2) Cell proliferation was determined using methylthiazolyl diphenyl-tetrazolium bromide assay (MTT; Sigma–Aldrich). The cells were seeded onto 96-well plates in a total volume of 150 μl at a density of 3.5 × 10^4 cells/well. […] To avoid the effect of the solvent, the concentration of DMSO was less than 0.1% (v/v) in all experiments. After incubation at 37°C for 48 h, 10 μl of MTT solution (5 mg/ml) was added and continued to incubate for 4 h. Following removal of medium containing MTT, 200 μl of DMSO was added to dissolve the formazan crystals formed by live cells. Solution absorbance was measured at 490 nm with an absorbance microplate reader (BioTek, Winooski, VT, United States). The assay was repeated six times. The IC50 value was determined from plot of % viability against the dose of compounds added.

[2] = test system: QGY HCC cells; test: MTT-based cell proliferation assay, QGY; set-up: species or system human
Protocol: as §1, §2

[3] = target: T1, CyPJ (Homo sapiens, UniProt Q9H2H8); test: Surface plasmon resonance (SPR) binding assay; settings: Biacore 3000, recombinant human CyPJ immobilized on CM5 chip, 20°C, compounds 0.3–10 μM
T1 construct: made in house
T1 sequence (Q9H2H8 1-161): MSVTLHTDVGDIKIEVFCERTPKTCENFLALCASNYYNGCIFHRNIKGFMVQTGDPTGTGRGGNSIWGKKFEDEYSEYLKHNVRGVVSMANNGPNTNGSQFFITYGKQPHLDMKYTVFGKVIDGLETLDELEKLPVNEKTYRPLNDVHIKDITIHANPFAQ
Protocol: The binding affinity of the selected compounds to CyPJ was measured by SPR with a Biacore 3000 instrument (Biacore AB Corporation, Uppsala, Sweden) as previously described ([Guo et al., 2005]; [Chen et al., 2007]). Briefly, recombinant human CyPJ protein was immobilized on an activated sensor chip via amine coupling. CyPJ protein (10 μM) was coupled to a CM5 sensor chip surface (a carboxymethylated dextran surface; CM5 chip from Biacore, Inc., Piscataway, NJ, United States) in a buffer containing 10 mM sodium acetate (pH 4.0) using standard amine coupling chemistry according to the manufacturer’s instructions. Flow cell 1 (FC-1) was used as the control surface and flow cell 2 (FC-2) contained 9000 resonance units (RU) of CyPJ (1 RU corresponds to 1 pg of protein per mm^2). The buffer stream was passed through FC-1 and FC-2 of the bi-channel at a flow rate of 40 μl/min. Compounds to be tested were purchased from SPECS (Netherlands). All chemicals were of the highest purity available, as certified by the vendor. All compounds were stocked in 100% dimethylsulfoxide at 10 mM and diluted at graded concentrations (0.3–10 μM) with HBS-EP buffer (0.01 M HEPES buffer, pH 7.4, containing 0.15 M NaCl, 3.4 mM EDTA, and 0.005% surfactant P20) containing 1% dimethylsulfoxide. The temperature of the instrument was set to 20°C, and the flow rate was set to 40 μl/min. Each compound (50 μl) was injected sequentially. NaOH (50 mM) was used to regenerate the surface of the CM5 chip. The 1:1 Langmuir binding model was used to determine the equilibrium dissociation constant (KD). For fast interactions, the steady-state model was used to determine KD values. All experiments were carried out in triplicate.

[4] = target: T2, CyPJ PPIase (Homo sapiens, UniProt Q9H2H8); test: α-chymotrypsin-coupled PPIase assay; type: biochemical; settings: for IC50: read-out: Compound IC50 for PPIase; for Compound IC50 for PPIase: CyPJ PPIase, substrate Suc-AAPF-pNA, 8°C, – = no inhibition detectable
T2 construct: made in house
T2 sequence (Q9H2H8 1-161): T1 sequence (Q9H2H8 1-161)
Protocol: We used an α-chymotrypsin-coupled PPIase assay, where the substrate succinyl-Ala-Ala-Pro-Phe-p-nitroanilide (Suc-AAPF-pNA) is first converted to the trans conformation by PPIase, and can then be digested by α-chymotrypsin to release chromogenic p-nitroanilide; the latter compound is then monitored with a spectrometer. Briefly, the assay was performed under 8°C in a 100 μl system. The Suc-AAPF-pNA was dissolved in the […] containing 480 mM of LiCl (working concentration: 3.0 mM). The α-chymotrypsin was dissolved in 1 mM HCl (working concentration: […]). When assayed, each test compound was diluted in 94 μl of assay buffer (50 mM HEPES, 100 mM NaCl; pH 8.0 at 0°C), and then mixed with 2 μl of CyPJ solution (5 μM). […] Three independent experiments were performed for each test compound and the respective half maximal inhibitory concentration (IC50) was calculated with OriginPro 7.5 software (OriginLab, Northampton, MA, United States).
The inhibitory effect of each compounds was determined with a standard spectrophotometric method in chymotrypsin-coupled assays with different concentrations of peptide substrate. The rate constants for the cis–trans conversion were evaluated by fitting the data to the integrated first-order rate equation through nonlinear least-square analysis.

[5] = Blood serum level after intraperitoneal administration; type: in vivo; settings: blood serum (unpublished data)
[6] = test system: xenograft mouse tumor model; test: In vivo xenograft mouse tumor model; settings: xenograft mouse tumor model (unpublished data)
[7] = test system: HCC1954 breast cancer cells; test: Growth inhibition, HCC1954; type: cell-based, human
Protocol: as §1, §2

[8] = test system: BT474 breast cancer cells; test: Growth inhibition, BT474; type: cell-based, human
Protocol: as §1, §2

[9] = test system: MDA-MB-468 breast cancer cells; test: Growth inhibition, MDA-MB-468; type: cell-based, human
Protocol: as §1, §2

[10] = test system: SKOV3 ovarian cancer cells; test: Growth inhibition, SKOV3; type: cell-based, human
Protocol: as §1, §2

[11] = test system: PC3 prostate cancer cells; test: Growth inhibition, PC3; type: cell-based, human
Protocol: as §1, §2

[12] = test system: LNCaP prostate cancer cells; test: Growth inhibition, LNCaP; type: cell-based, human
Protocol: as §1, §2

[13] = Homo sapiens, SK-HEP1, Table 2, 48 h
[14] = Table 4, ZX-J-19 derivatives, 48 h

Row | Structure (SMILES) | Kd [3] [µM] | IC50 [1, 14] [µM] | IC50 [2, 14] [µM] | also measured
1 | O=c1[nH]cc(F)c(=O)[nH]1 [Compound 5-FU, 5-fluorouracil, reference compound] | – | – | – | IC50 [1, 13]: 177.24 ± 0.065 µM; IC50 ([2]; Homo sapiens, Table 2, 48 h): 238.53 ± 0.035 µM
2 | CCOC(=O)c1ccc(NC(=O)c2cc(-c3ccc(C)c(C)c3)nc3ccccc23)cc1 [ZX-J-8] | 14.5 | – | – | IC50 [4]: 10.3 ± 0.442 µM
3 | COc1ccc(NC(=O)c2ccc(COc3ccccc3Br)o2)c(OC)c1 [ZX-J-9] | 1.29 | – | – | IC50 [4]: 8.54 ± 0.965 µM
4 | COc1ccc(CCNC(=O)c2ccc(C(=O)NCCc3ccc(OC)c(OC)c3)nc2)cc1OC [ZX-J-10] | 0.8 | – | – | Compound IC50 for PPIase [4]: no inhibition
5 | C/C(=N/NC(=O)c1ccc(COc2ccc3c(c2)CCC3)o1)c1ccc(NC(=O)C2CCCC2)cc1 [ZX-J-11] | 0.0988 | – | – | IC50 [4]: 19.95 ± 0.025 µM
6 | CCCCOc1cccc(-c2cc(C(=O)Nc3ccc4c(c3)OCCO4)c3ccccc3n2)c1 [ZX-J-12] | 118 | – | – | IC50 [4]: 12.95 ± 0.054 µM
7 | CC(C)OC(=O)c1ccc(NC(=O)c2ccc(COc3ccccc3Cl)o2)cc1 [ZX-J-13] | 0.516 | – | – | IC50 [4]: 12.63 ± 0.068 µM
8 | COc1cc(NC(=O)COc2ccc3ccccc3c2)ccc1NC(=O)c1cc2ccccc2o1 [ZX-J-15] | 0.661 | – | – | Compound IC50 for PPIase [4]: no inhibition
9 | CCCOC(=O)c1ccc(N2C(=O)c3ccc(C(=O)OC(C)C(=O)c4ccc(C)cc4)cc3C2=O)cc1 (stereo not shown) [ZX-J-16] | 3.41 | – | – | IC50 [4]: 18.5 ± 0.727 µM
10 | COc1cc(/C=N/NC(=O)c2cc3c(ccc4ccccc43)o2)ccc1OCc1ccccc1F [ZX-J-17] | 0.0435 | – | – | Compound IC50 for PPIase [4]: no inhibition
11 | Cc1cc(NC(=O)C(=O)NCCN2CCN(C(=O)c3ccccc3F)CC2)ccc1Br [ZX-J-18] | 0.242 | – | – | Compound IC50 for PPIase [4]: no inhibition
12 | CN(C)C(=O)Nc1ccc2nc(-c3ccco3)c(-c3ccco3)nc2c1 [ZX-J-19] | 16.7 | – | – | IC50 [4]: 15.949 ± 0.012 µM; IC50 [1, 13]: 40.44 ± 0.033 µM; IC50 ([2]; Homo sapiens, Table 2, 48 h): 52.438 ± 0.019 µM; time until absorbed and accumulated in blood serum [5]: ≤ 10 min; time until declined and diminished to control levels [5]: 8 h; antitumor activity in vivo [6]: poor antitumor activity
13 | CC(C)(C)C(=O)Nc1ccc2nc(-c3ccccc3)c(-c3ccccc3)nc2c1 [ZX-J-19b] | – | 21.6 | 26 | –
14 | O=C(Nc1ccc2nc(-c3ccccc3)c(-c3ccccc3)nc2c1)c1ccc([N+](=O)[O-])cc1 [ZX-J-19c] | – | – | 37.6 | –
15 | O=C(CCl)Nc1ccc2nc(-c3ccccc3)c(-c3ccccc3)nc2c1 [ZX-J-19d] | – | 11.3 | 17.9 | –
16 | O=C(Nc1ccc2nc(-c3ccccc3)c(-c3ccccc3)nc2c1)c1cccc(Cl)c1 [ZX-J-19e] | – | 7.5 | 12.3 | –

Row | Structure (SMILES) | Kd [3] [µM] | IC50 [1, 14] [µM] | IC50 [2, 14] [µM] | also measured
17 | O=C(Nc1ccc2nc(-c3ccccc3)c(-c3ccccc3)nc2c1)c1ccc(Cl)cc1 [ZX-J-19g] | – | 9.89 | 11.3 | –
18 | O=C(Nc1ccc2nc(-c3ccccc3)c(-c3ccccc3)nc2c1)c1ccccc1 [ZX-J-19h] | – | 40.3 | 27.5 | –
19 | CCC(=O)Nc1ccc2nc(-c3ccccc3)c(-c3ccccc3)nc2c1 [ZX-J-19i] | – | 40.8 | – | –
20 | CCCCCCCC(=O)Nc1ccc2nc(-c3ccccc3)c(-c3ccccc3)nc2c1 [ZX-J-19j, N-(2,3-diphenylquinoxalin-6-yl)octanamide] | – | – | – | IC50 ([1]; Homo sapiens, SK-HEP1, Table 4, ZX-J-19 derivatives, 48 h): 6.73 µM; IC50 ([2]; Homo sapiens, Table 4, ZX-J-19 derivatives, 48 h): 12.5 µM; inhibition at 20 µM ([7]; Homo sapiens): 64.2%; inhibition at 20 µM ([8]; Homo sapiens, BT-474): 84%; inhibition at 20 µM ([9]; Homo sapiens): 84.7%; inhibition at 20 µM ([10]; Homo sapiens, SK-OV-3): 48.1%; inhibition at 20 µM ([11]; Homo sapiens): 84.7%; inhibition at 20 µM ([12]; Homo sapiens): 48.1%
21 | CC(=O)Nc1ccc2nc(-c3ccccc3)c(-c3ccccc3)nc2c1 [ZX-J-19k] | – | 7.53 | 199 | –
22 | CCCC(=O)Nc1ccc2nc(-c3ccccc3)c(-c3ccccc3)nc2c1 [ZX-J-19l] | – | 3.51 | 21.4 | % Growth inhibition at 20 μM [7]: 91.258%; % Growth inhibition at 20 μM [8]: 90.963%; % Growth inhibition at 20 μM [9]: 90.849%; % Growth inhibition at 20 μM [10]: 90.919%; % Growth inhibition at 20 μM [11]: 91.039%; % Growth inhibition at 20 μM [12]: 91.038%
23 | CC(C)(C)C(=O)Nc1ccc2nc(-c3ccco3)c(-c3ccco3)nc2c1 [ZX-J-19m] | – | 76.7 | 82.3 | –
24 | CCCC(=O)Nc1ccc2nc(-c3ccco3)c(-c3ccco3)nc2c1 [ZX-J-19n] | – | 17.7 | 18 | –
25 | CCCCCCCC(=O)Nc1ccc2nc(-c3ccco3)c(-c3ccco3)nc2c1 [ZX-J-19o] | – | 17.3 | 98.4 | –
26 | O=C(Nc1ccc2nc(-c3ccco3)c(-c3ccco3)nc2c1)c1ccccc1Cl [ZX-J-19p] | – | 45.7 | – | –
27 | O=C(Nc1ccc2nc(-c3ccco3)c(-c3ccco3)nc2c1)c1ccc([N+](=O)[O-])cc1 [ZX-J-19q] | – | 43.6 | 44.3 | –
28 | O=C(Nc1ccc2nc(-c3ccco3)c(-c3ccco3)nc2c1)c1ccccc1 [ZX-J-19r] | – | 18.8 | 17.3 | –
29 | O=C(Nc1ccc2nc(-c3ccc[nH]3)c(-c3ccc[nH]3)nc2c1)c1ccc(Cl)cc1 [ZX-J-19t] | – | 46.3 | 42.5 | –
30 | CC(=O)Nc1ccc2nc(-c3ccc[nH]3)c(-c3ccc[nH]3)nc2c1 [ZX-J-19u] | – | 14.2 | 32.7 | –
31 | O=C(CCl)Nc1ccc2nc(-c3ccc[nH]3)c(-c3ccc[nH]3)nc2c1 [ZX-J-19v] | – | 140 | 127 | –
